Assay results: patent US20120165310A1, “ETHER DERIVATIVES OF BICYCLIC HETEROARYLS” (NOVARTIS AG, priority 2009, published 2012)

Target: T1, IGF-1R (Homo sapiens, UniProt P08069)
T1 construct: expressed in transfected cells; host or cells: Hek293 (Hek293-IGF1R)
Experiment: Cellular IGF-1R assay: capture ELISA (MSD) of receptor phosphorylation in Hek293 cells
Format: cell-based
Conditions: Hek293-IGF1R cells, 1 h pre-incubation, 10 min IGF stimulation, pIGF1R capture ELISA
Procedure: (§1) In this assay the activity of the compounds of the invention against Insulin-like growth factor I (IGF-I) induced autophosphorylation of the IGF-IR was determined. The assay was conducted as follows: Compound-mediated inhibition of IGF1R and INSR phosphorylation in Hek293 cells transduced with the corresponding receptors was assessed in a capture ELISA format using the MSD (Meso Scale Discovery) platform. Briefly, 30,000 cells washed and diluted in starvation medium (DMEM high glucose supplemented with 0.1% BSA) were seeded in 90 μL per well into 96-well plates pre-coated with poly-D-lysine (0.1 mg/mL in PBS/O). After 24 h incubation at 37° C. and 5% CO2, dose-response effects were determined with 3-fold serial compound dilutions, starting at 10 μM. The final vehicle concentration is 0.1% DMSO in all wells. Following pre-incubation with compounds for 1 h, receptor phosphorylation was triggered by a 10 min exposure to 1.0 ng/μL IGF for Hek293-IGF1R cells, and 5.0 ng/μL insulin for Hek293-InsR cells. Cell lysis was achieved by addition of 80 μL MSD lysis buffer per aspirated well, incubation on ice for 20 min, and a freeze-thaw cycle. Target phosphorylation was then assessed by transferring volumes corresponding to approx. 6 μg Hek293-IGF1R or 0.6 μg Hek293-InsR lysates to MSD assay plates pre-coated with total-IGF1R or total-InsR Abs, respectively. […] Immune complexes were detected by a SULFO-Tag™-coupled anti-rabbit IgG antibody in the presence of 150 μL MSD read-buffer. Light emission at 620 nm triggered by application of electric current was recorded on a MSD Sectorlmager 6000. Acquired raw data (mean Ru-ECL units) were processed in an Excel analysis template. The plate blank (MSD lysis buffer) was subtracted from all data points. The effect of a particular test compound concentration on receptor phosphorylation was expressed relative to the window defined by ligand-stimulated vs unstimulated control cells (set as 100%). IC50 values [nM] were determined using 4-parametric curve-fitting (XLfit software, V4.3.2).
as §1, with “Compound-mediated” for “In this assay the activity of the compounds of the invention against Insulin-like growth factor I (IGF-I) induced autophosphorylation of the IGF-IR was determined. The assay was conducted as follows: Compound-mediated”, “cells trans-duced” for “cells transduced”, “receptors were” for “receptors was”, “concentration was” for “concentration is”, “for Hek293-IGF1 R” for “for Hek293-IGF1R”, “with total-IGF1 R” for “with total-IGF1R”

T1 sequence (P08069 31-1367): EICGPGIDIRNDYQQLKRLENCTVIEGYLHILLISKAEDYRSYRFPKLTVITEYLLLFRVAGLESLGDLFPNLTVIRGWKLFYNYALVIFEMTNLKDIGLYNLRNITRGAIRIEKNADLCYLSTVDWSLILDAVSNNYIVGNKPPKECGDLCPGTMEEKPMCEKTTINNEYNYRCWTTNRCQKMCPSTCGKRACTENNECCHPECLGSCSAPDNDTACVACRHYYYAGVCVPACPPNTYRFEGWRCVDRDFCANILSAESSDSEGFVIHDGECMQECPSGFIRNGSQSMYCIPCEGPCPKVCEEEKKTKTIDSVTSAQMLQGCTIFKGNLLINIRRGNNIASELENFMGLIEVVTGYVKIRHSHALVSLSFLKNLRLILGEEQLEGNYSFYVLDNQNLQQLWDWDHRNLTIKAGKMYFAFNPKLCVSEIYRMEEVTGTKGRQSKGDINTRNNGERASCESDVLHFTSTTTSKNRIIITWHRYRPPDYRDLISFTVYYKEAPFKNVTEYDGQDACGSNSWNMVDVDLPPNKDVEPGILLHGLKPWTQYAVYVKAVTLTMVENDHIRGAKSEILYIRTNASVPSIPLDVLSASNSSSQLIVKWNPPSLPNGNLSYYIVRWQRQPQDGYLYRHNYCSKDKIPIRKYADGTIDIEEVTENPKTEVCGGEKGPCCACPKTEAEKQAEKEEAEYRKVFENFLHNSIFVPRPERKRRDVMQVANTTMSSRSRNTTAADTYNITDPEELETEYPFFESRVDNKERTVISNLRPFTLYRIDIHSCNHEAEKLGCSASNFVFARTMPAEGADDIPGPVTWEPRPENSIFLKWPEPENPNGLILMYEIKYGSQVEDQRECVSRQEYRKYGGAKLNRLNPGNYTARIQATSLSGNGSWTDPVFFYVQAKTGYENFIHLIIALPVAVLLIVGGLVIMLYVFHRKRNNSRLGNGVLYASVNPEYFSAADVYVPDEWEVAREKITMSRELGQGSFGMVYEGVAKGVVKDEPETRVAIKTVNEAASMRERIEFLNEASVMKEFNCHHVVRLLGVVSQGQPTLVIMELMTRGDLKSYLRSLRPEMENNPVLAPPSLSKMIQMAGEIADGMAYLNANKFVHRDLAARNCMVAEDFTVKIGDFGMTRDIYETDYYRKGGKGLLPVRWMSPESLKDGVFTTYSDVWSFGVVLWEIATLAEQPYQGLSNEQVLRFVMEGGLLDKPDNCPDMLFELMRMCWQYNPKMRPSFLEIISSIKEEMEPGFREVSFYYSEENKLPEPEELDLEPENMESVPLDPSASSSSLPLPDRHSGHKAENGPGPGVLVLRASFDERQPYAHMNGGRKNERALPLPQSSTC

Structure (SMILES)	IC50
Cc1cccc(NC[C@H]2C[C@@H](n3cc(-c4cccc(OCC56CCC(CC5)O6)c4)c4c(N)ncnc43)C2)n1 (relative stereo) [Example 194, 7-{cis-3-[(6-Methyl-pyridin-2-ylamino)-methyl]-cyclobutyl}-5-[3-(7-oxa-bicyclo[2.2.1]hept-1-ylmethoxy)-phenyl]-7H-pyrrolo[2,3-d]pyrimidin-4-ylamine]	83 nM
CN1CCN([C@H]2C[C@@H](n3cc(-c4cccc(OCC56CCC(CC5)O6)c4)c4c(N)ncnc43)C2)CC1=O (relative stereo) [Example 195, cis-4-(3-{4-Amino-5-[3-(7-oxa-bicyclo[2.2.1]hept-1-ylmethoxy)-phenyl]-pyrrolo[2,3-d]pyrimidin-7-yl}-cyclobutyl)-1-methyl-piperazin-2-one]	385 nM
CN1CCN([C@H]2C[C@H](n3cc(-c4cccc(OCC56CCC(CC5)O6)c4)c4c(N)ncnc43)C2)CC1=O (relative stereo) [Example 196, 4-(trans-3-{4-Amino-5-[3-(7-oxa-bicyclo[2.2.1]hept-1-ylmethoxy)-phenyl]-pyrrolo[2,3-d]pyrimidin-7-yl}cyclobutyl)-1-methyl-piperazin-2-one]	192 nM
CN1CCN(C[C@H]2C[C@@H](n3cc(-c4cccc(OCC56CCC(CC5)O6)c4)c4c(N)ncnc43)C2)CC1=O (relative stereo) [Example 210, 4-(cis-3-{4-Amino-5-[3-(7-oxa-bicyclo[2.2.1]hept-1-ylmethoxy)-phenyl]-pyrrolo[2,3-d]pyrimidin-7-yl}-cyclobutylmethyl)-1-methyl-piperazin-2-one]	115 to 194 nM
Nc1ncnc2c1c(-c1cccc(OCC34CCC(CC3)O4)c1)cn2[C@H]1C[C@@H](O)C1 (relative stereo) [Example 221, cis-3-{4-amino-5-[3-(7-oxa-bicyclo[2.2.1]hept-1-ylmethoxy)-phenyl]-pyrrolo[2,3-d]pyrimidin-7-yl}cyclobutanol]	411 nM
CC(=O)N[C@H]1C[C@@H](n2cc(-c3cccc(OCC45CCC(CC4)O5)c3)c3c(N)ncnc32)C1 (relative stereo) [Example 223, N-(cis-3-{4-amino-5-[3-(7-oxa-bicyclo[2.2.1]hept-1-ylmethoxy)-phenyl]-pyrrolo[2,3-d]pyrimidin-7-yl}-cyclobutyl)-acetamide]	308 nM
Nc1ncnc2c1c(-c1cccc(OCC34CCC(CC3)O4)c1)cn2[C@H]1C[C@@H](N2CCS(=O)(=O)CC2)C1 (relative stereo) [Example 230, 7-[cis-3-(1,1-dioxo-thiomorpholin-4-yl)-cyclobutyl]-5-[3-(7-oxa-bicyclo[2.2.1]hept-1-ylmethoxy)-phenyl]-7H-pyrrolo[2,3-d]pyrimidin-4-ylamine]	17 nM
Nc1ncnc2c1c(-c1cccc(OCC34CCC(CC3)O4)c1)cn2[C@H]1C[C@@H](N2CC[S+]([O-])CC2)C1 (relative stereo) [Example 232, 5-[3-(7-Oxa-bicyclo[2.2.1]hept-1-ylmethoxy)-phenyl]-7-[cis-3-(1-oxo-thiomorpholin-4-yl)-cyclobutyl]-7H-pyrrolo[2,3-d]pyrimidin-4-ylamine]	35 to 38 nM
CC1CCC(COc2cccc(-c3cn(C4CC(CN5CCC5)C4)c4ncnc(N)c34)c2)O1 (single isomer, unassigned) [Example 6, cis-(RR and SS)-7-(3-azetidin-1-ylmethyl-cyclobutyl)-5-[3-(5-methyl-tetrahydro-furan-2-ylmethoxy)-phenyl]-7H-pyrrolo[2,3-d]pyrimidin-4-ylamine]	30 nM
CC1CCC(COc2cccc(-c3cn(C4CC(CN5CCC5)C4)c4ncnc(N)c34)c2)O1 (single isomer, unassigned) [Example 7, cis-(RR and SS)-7-(3-azetidin-1-ylmethyl-cyclobutyl)-5-[3-(5-methyl-tetrahydro-furan-2-ylmethoxy)-phenyl]-7H-pyrrolo[2,3-d]pyrimidin-4-ylamine]	95 to 117 nM
CC1(C)CCC(COc2cccc(-c3cn(C4CC(CN5CCC(F)C5)C4)c4ncnc(N)c34)c2)O1 (single isomer, unassigned) [Example 39]	224 nM
CC1(C)CCC(COc2cccc(-c3cn(C4CC(CN5CCC(F)C5)C4)c4ncnc(N)c34)c2)O1 (single isomer, unassigned) [Example 45]	35 nM
CC1(C)CCC(COc2cccc(-c3cn(C4CC(CN5CCC(F)C5)C4)c4ncnc(N)c34)c2)O1 (single isomer, unassigned) [Example 46]	15 nM
CC1(C)CCC(COc2cccc(-c3cn([C@H]4C[C@@H](CN5CCC(F)(F)CC5)C4)c4ncnc(N)c34)c2)O1 (single isomer, unassigned) [Example 54]	45 to 120 nM
CC1(C)CCC(COc2cccc(-c3cn([C@H]4C[C@@H](CN5CCC(F)(F)CC5)C4)c4ncnc(N)c34)c2)O1 (single isomer, unassigned) [Example 55]	22 to 38 nM
CC1(C)CCC(COc2cccc(-c3cn([C@H]4C[C@@H](CN5CCC(F)CC5)C4)c4ncnc(N)c34)c2)O1 (single isomer, unassigned) [Example 59, 7-[cis-3-(4-fluoro-piperidin-1-ylmethyl)-cyclobutyl]-5-[3-(5,5-dimethyl-tetrahydro-furan-2-ylmethoxy)-phenyl]-7H-pyrrolo[2,3-d]pyrimidin-4-ylamine]	18 nM
CC1(C)CCC(COc2cccc(-c3cn([C@H]4C[C@@H](CN5CCS(=O)(=O)CC5)C4)c4ncnc(N)c34)c2)O1 (single isomer, unassigned) [Example 66]	< 4 nM
CC1(C)CCC(COc2cccc(-c3cn([C@H]4C[C@@H](CN5CCS(=O)(=O)CC5)C4)c4ncnc(N)c34)c2)O1 (single isomer, unassigned) [Example 67]	15 nM
CC1(C)CCC(COc2cccc(-c3cn([C@H]4C[C@@H](CN5CCC(F)CC5)C4)c4ncnc(N)c34)c2)O1 (single isomer, unassigned) [Example 74, 5-[3-(5,5-dimethyl-tetrahydro-furan-2-ylmethoxy)-phenyl]-7-[cis-3-(4-fluoro-piperidin-1-ylmethyl)-cyclobutyl]-7H-pyrrolo[2,3-d]pyrimidin-4-ylamine]	52 nM
Nc1ncnc2c1c(-c1cccc(OCC34CCC(CC3)O4)c1)cn2C1CC(O)(CN2CCCC2CO)C1 (single isomer, unassigned) [Example 200]	263 nM
Nc1ncnc2c1c(-c1cccc(OCC34CCC(CC3)O4)c1)cn2C1CC(O)(CN2CCCC2CO)C1 (single isomer, unassigned) [Example 202]	390 nM
Nc1ncnc2c1c(-c1cccc(OCC34CCC(CC3)O4)c1)cn2C1CC(O)(CN2CCC(O)C2)C1 (single isomer, unassigned) [Example 203]	501 nM
Nc1ncnc2c1c(-c1cccc(OCC34CCC(CC3)O4)c1)cn2C1CC(O)(CN2CCC(O)C2)C1 (single isomer, unassigned) [Example 204]	53 nM
Nc1ncnc2c1c(-c1cccc(OCC34CCC(CC3)O4)c1)cn2C1CC(O)(CN2CCC(O)C2)C1 (single isomer, unassigned) [Example 206]	288 nM
Nc1ncnc2c1c(-c1cccc(OCC34CCC(CC3)O4)c1)cn2C1CC(O)(CN2CCC(O)C2)C1 (single isomer, unassigned) [Example 207]	327 nM
Nc1ncnc2c1c(-c1cccc(OCC34CCC(CC3)O4)c1)cn2C1CC(O)(CN2CCCC2CO)C1 (single isomer, unassigned) [Example 209]	60 nM
Nc1ncnc2c1c(-c1cccc(OCC34CCC(CC3)O4)c1)cn2C1CC(O)(CN2CCCC2CO)C1 (single isomer, unassigned) [Example 211]	224 nM
